Results as given in patent US6723680B2, “Composition for regulation of gametophytic self-incompatibility, control method of gametophytic self-incompatibility of a plant and the plant self-pollinated by using said control method” (Istech Co., Ltd., priority 2000, dated 2004).

System: style-specific S1 RNase and S2 RNase
Test: Inhibition of style-specific RNase activity
Assay type: biochemical, Fuji apple
Conditions: 1 mM DEPC
Experimental: The activity variation of the style-specific S1 RNase and S2 RNase purified in the Example 1-4 was investigated by adding chemicals acting as an inhibitor of protein degradation enzyme. RNase activity was measured by adding general stimulators of RNase activity, inhibitors of RNase activity commercially available and inhibitor candidate of a style-specific RNase of the present invention (Singh A. et al., Plant Physiology, 96:61-68, 1991). Among them, 1 mM EDTA, which is a representative inhibitor of protein degradation enzyme, 1 mM CaCl2, a stimulator of RNase activity, 1 mM DEPC (Sigma), a fatally poisonous inhibitor of RNase activity commercially available, and 1 mM ZnSO4 and 1 mM CuSO4, inhibitor candidates of the style-specific RNase was added respectively to mesure RNase activity.

Q: With `CCOC(=O)OC(=O)OCC` [DEPC] as the compound, how does the “style-specific RNase activity” value read?
A: inhibited
